Test results: PubChem BioAssay AID1259407 (Chemical Carcinogenesis Research Information System (CCRIS), 2018)
Activity calls are given as the source filed them. No rule for the calls is given here.

Tested on: CCRIS mutagenicity, Ames/micronucleus/aberration tests
Assay: CCRIS mutagenicity studies
[1] = Test System: AMES SALMONELLA TYPHIMURIUM, Strain/Indicator: TA98, Metabolic Activation: NONE, Method: PREINCUBATION
[2] = Test System: AMES SALMONELLA TYPHIMURIUM, Strain/Indicator: TA100, Metabolic Activation: NONE, Method: PREINCUBATION
[3] = Test System: AMES SALMONELLA TYPHIMURIUM, Strain/Indicator: TA1535, Metabolic Activation: NONE, Method: PREINCUBATION
[4] = Test System: AMES SALMONELLA TYPHIMURIUM, Strain/Indicator: TA1537, Metabolic Activation: NONE, Method: PREINCUBATION

Measured: mutagenic call

CCCCOCCO
active: Test System: AMES SALMONELLA TYPHIMURIUM, Strain/Indicator: TA97A, Metabolic Activation: RAT, LIVER, S-9, AROCLOR 1254, Method: STANDARD PLATE active; positive | Test System: CHINESE HAMSTER V-79, Strain/Indicator: V-79 (HPRT)/6-THIOGUANINE, Metabolic Activation: NONE active; positive
inactive: Test System: AMES SALMONELLA TYPHIMURIUM, Strain/Indicator: TA97, Metabolic Activation: HAMSTER, LIVER, S-9, AROCLOR 1254 (10 OR 30%), Method: PREINCUBATION inactive; negative | Test System: AMES SALMONELLA TYPHIMURIUM, Strain/Indicator: TA97, Metabolic Activation: NONE, Method: PREINCUBATION inactive; negative | Test System: AMES SALMONELLA TYPHIMURIUM, Strain/Indicator: TA97, Metabolic Activation: RAT, LIVER, S-9, AROCLOR 1254 (5, 10 OR 30%), Method: PREINCUBATION inactive; negative | Test System: AMES SALMONELLA TYPHIMURIUM, Strain/Indicator: TA97A, Metabolic Activation: RAT, LIVER, S-9, AROCLOR 1254 (2.5 OR 10%), Method: STANDARD PLATE inactive; negative | Test System: AMES SALMONELLA TYPHIMURIUM, Strain/Indicator: TA98, Metabolic Activation: HAMSTER, LIVER, S-9, AROCLOR 1254 (10 OR 30%), Method: PREINCUBATION inactive; negative | [1] inactive; negative | Test System: AMES SALMONELLA TYPHIMURIUM, Strain/Indicator: TA98, Metabolic Activation: NONE, Method: STANDARD PLATE inactive; negative | Test System: AMES SALMONELLA TYPHIMURIUM, Strain/Indicator: TA98, Metabolic Activation: RAT, LIVER, S-9, AROCLOR 1254 (10 OR 30%), Method: PREINCUBATION inactive; negative | Test System: AMES SALMONELLA TYPHIMURIUM, Strain/Indicator: TA98, Metabolic Activation: RAT, LIVER, S-9, AROCLOR 1254, Method: STANDARD PLATE inactive; negative | Test System: AMES SALMONELLA TYPHIMURIUM, Strain/Indicator: TA100, Metabolic Activation: HAMSTER, LIVER, S-9, AROCLOR 1254 (10 OR 30%), Method: PREINCUBATION inactive; negative | [2] inactive; negative | Test System: AMES SALMONELLA TYPHIMURIUM, Strain/Indicator: TA100, Metabolic Activation: NONE, Method: STANDARD PLATE inactive; negative | Test System: AMES SALMONELLA TYPHIMURIUM, Strain/Indicator: TA100, Metabolic Activation: RAT, LIVER, S-9, AROCLOR 1254 (2.5 OR 10%), Method: STANDARD PLATE inactive; negative | Test System: AMES SALMONELLA TYPHIMURIUM, Strain/Indicator: TA100, Metabolic Activation: RAT, LIVER, S-9, AROCLOR 1254 (10 OR 30%), Method: PREINCUBATION inactive; negative | Test System: AMES SALMONELLA TYPHIMURIUM, Strain/Indicator: TA100, Metabolic Activation: RAT, LIVER, S-9, AROCLOR 1254, Method: STANDARD PLATE inactive; negative | Test System: AMES SALMONELLA TYPHIMURIUM, Strain/Indicator: TA102, Metabolic Activation: NONE, Method: STANDARD PLATE inactive; negative | Test System: AMES SALMONELLA TYPHIMURIUM, Strain/Indicator: TA102, Metabolic Activation: RAT, LIVER, S-9, AROCLOR 1254, Method: STANDARD PLATE inactive; negative | Test System: AMES SALMONELLA TYPHIMURIUM, Strain/Indicator: TA1535, Metabolic Activation: HAMSTER, LIVER, S-9, AROCLOR 1254 (10 OR 30%), Method: PREINCUBATION inactive; negative | [3] inactive; negative | Test System: AMES SALMONELLA TYPHIMURIUM, Strain/Indicator: TA1535, Metabolic Activation: RAT, LIVER, S-9, AROCLOR 1254 (10 OR 30%), Method: PREINCUBATION inactive; negative | Test System: AMES SALMONELLA TYPHIMURIUM, Strain/Indicator: TA1537, Metabolic Activation: HAMSTER, LIVER, S-9, AROCLOR 1254 (30%), Method: PREINCUBATION inactive; negative | [4] inactive; negative | Test System: AMES SALMONELLA TYPHIMURIUM, Strain/Indicator: TA1537, Metabolic Activation: RAT, LIVER, S-9, AROCLOR 1254 (30%), Method: PREINCUBATION inactive; negative | Test System: CHINESE HAMSTER OVARY, Strain/Indicator: CHO-AS52/6-THIOGUANINE, Metabolic Activation: NONE inactive; negative | Test System: E. COLI, Strain/Indicator: WP2 UVRA, Metabolic Activation: NONE, Method: STANDARD PLATE inactive; negative | Test System: E. COLI, Strain/Indicator: WP2 UVRA, Metabolic Activation: RAT, LIVER, S-9, AROCLOR 1254 (2.5 OR 10%), Method: STANDARD PLATE inactive; negative

CC1=CC(O)=NS(=O)(=O)O1
active: End Point: In vivo micronucleus, Test System: Peripheral blood normochromatic erythrocytes, Species: Mouse, Strain/Sex: p53 Haploinsufficient/Male, Route: Oral active; positive
inactive: End Point: In vivo micronucleus, Test System: Peripheral blood normochromatic erythrocytes, Species: Mouse, Strain/Sex: FVB.N/TgN (v-Ha-ras) Tg.AC hemizygous/Female, Route: Oral inactive; negative | End Point: In vivo micronucleus, Test System: Peripheral blood normochromatic erythrocytes, Species: Mouse, Strain/Sex: FVB.N/TgN (v-Ha-ras) Tg.AC hemizygous/Male, Route: Oral inactive; negative | End Point: In vivo micronucleus, Test System: Peripheral blood normochromatic erythrocytes, Species: Mouse, Strain/Sex: p53 Haploinsufficient/ Female, Route: Oral inactive; negative | Test System: MOUSE LYMPHOMA, Strain/Indicator: L5178Y (TK+/TK-), Metabolic Activation: NONE, Method: SUSPENSION/PLATE inactive; negative. reevaluation of results: negative | Test System: MOUSE LYMPHOMA, Strain/Indicator: L5178Y (TK+/TK-), Metabolic Activation: RAT, LIVER, S-9, AROCLOR 1254, Method: SUSPENSION/PLATE inactive; negative. reevaluation of results: negative

Cc1cc(C)n(-c2nnc(NN)c3c2[nH]c2ccccc23)n1
inactive: [1] inactive; negative | Test System: AMES SALMONELLA TYPHIMURIUM, Strain/Indicator: TA98, Metabolic Activation: RAT, LIVER, S-9, AROCLOR 1254 (4 OR 10%), Method: PREINCUBATION inactive; negative | [2] inactive; negative | Test System: AMES SALMONELLA TYPHIMURIUM, Strain/Indicator: TA100, Metabolic Activation: RAT, LIVER, S-9, AROCLOR 1254 (4 OR 10%), Method: PREINCUBATION inactive; negative | [3] inactive; negative | Test System: AMES SALMONELLA TYPHIMURIUM, Strain/Indicator: TA1535, Metabolic Activation: RAT, LIVER, S-9, AROCLOR 1254 (10%), Method: PREINCUBATION inactive; negative | [4] inactive; negative | Test System: AMES SALMONELLA TYPHIMURIUM, Strain/Indicator: TA1537, Metabolic Activation: RAT, LIVER, S-9, AROCLOR 1254 (4 OR 10%), Method: PREINCUBATION inactive; negative
